From publication doi:10.1101/2022.09.03.506457v1 (biorxiv, 2022)

Target: T1, MjFH (MjFHαβ), holo, Fe-S reconstituted (Methanocaldococcus jannaschii, UniProt Q58034+Q58690)
T1 sequence (Q58690 1-285): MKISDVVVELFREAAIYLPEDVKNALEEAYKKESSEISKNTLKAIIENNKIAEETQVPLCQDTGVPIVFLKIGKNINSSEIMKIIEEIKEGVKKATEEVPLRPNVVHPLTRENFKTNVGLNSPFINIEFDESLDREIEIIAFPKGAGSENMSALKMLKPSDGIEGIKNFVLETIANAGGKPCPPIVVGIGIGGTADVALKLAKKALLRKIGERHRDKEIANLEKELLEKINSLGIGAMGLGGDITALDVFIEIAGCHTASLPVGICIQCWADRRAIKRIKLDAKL
T1 sequence (Q58034 1-195): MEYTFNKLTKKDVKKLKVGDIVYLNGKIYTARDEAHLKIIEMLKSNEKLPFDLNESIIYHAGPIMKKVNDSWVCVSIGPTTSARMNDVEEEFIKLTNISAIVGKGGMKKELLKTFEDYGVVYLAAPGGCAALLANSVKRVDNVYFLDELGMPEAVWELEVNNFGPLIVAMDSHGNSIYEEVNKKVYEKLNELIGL
Format: biochemical
Conditions: pH 7.2, 50 mM Tris-HCl, 70 °C

Q: With `O=C(O)/C=C/C(=O)O` [fumarate] as the molecule, how does the Km read?
A: 2790 ± 397 µM
